Source: patent US10556898B2, “Indazolyl-1,2,4-thiadiazolamines and related compounds for inhibition of Rho-associated protein kinase and the treatment of disease” (Lycera Corporation, priority 2016, dated 2020)
Read-outs that look alike come from different tables or passages of the source.

Columns and labels:
[1] = target: T1, GST-tagged human ROCK1 catalytic domain 1-477 (Homo sapiens, UniProt Q13464); assay: Isolated Enzyme Assay, ROCK1 (LANCE Ultra ULight-CREBtide FRET); type: biochemical; details: 30 μM highest concentration tested, read-out: Results from Isolated Enzyme Assay IC50 (μM) ROCK1
T1 construct: human ROCK1 catalytic domain 1-477 from Carna Biosciences (cat #01-109); purchased Carna Biosciences 01-109; host or cells: baculovirus expression system
Description: (§1) Exemplary compounds were tested for ability to inhibit Rho-associated protein kinase isoform 1 (ROCK1) and Rho-associated protein kinase isoform 2 (ROCK2). Assay procedures and results are described below.
(§2) Part I—Procedure for Determining ROCK Inhibition Ability of Test Compounds Using an Isolated Enzyme Assay
(§3) Protein constructs were purified from a baculovirus expression system. The peptide substrate was fluorescent LANCE® Ultra ULight-CREBtide: […] (PerkinElmer, # TRF0107-D). Kinase reactions were carried out in a 10 μL volume in 384-well plates: 50 nM ULight-CREBtide substrate, 2 nM constitutively active ROCK1 or ROCK2 kinase, and test compound in DMSO (or DMSO only for controls) were diluted into assay buffer containing 50 mM Tris-HCl (pH=7.5), 10 mM MgCl2, 1 mM EGTA, 0.01% Tween-20, and 2 mM DTT such that the final concentration of DMSO was 0.5%. After a 90 minute incubation at room temperature on a shaker table, the kinase reaction was stopped by addition of 10 mM EDTA, and phosphorylation of the substrate was detected by adding 1 nM LANCE® Ultra Europium-anti-phospho-CREB (ser133) antibody (PerkinElmer, # TRF0200-D) and incubating for 60 minutes on a shaker at room temperature. The fluorescence resonance energy transfer (FRET) signals were read and analyzed on an Envision™ 2103 Multilabel Reader (Perkin Elmer). The concentration of test compound required to inhibit substrate phosphorylation by 50% (the IC50) was calculated by non-linear regression using GraphPad PRIZM.

[2] = target: T2, GST-tagged human ROCK2 catalytic domain 1-553 (Homo sapiens, UniProt O75116); assay: Isolated Enzyme Assay, ROCK2 (LANCE Ultra ULight-CREBtide FRET); type: biochemical; details: 30 μM highest concentration tested, read-out: Results from Isolated Enzyme Assay IC50 (μM) ROCK2
T2 construct: GST-tagged human ROCK2 catalytic domain 1-553 from Carna Biosciences (Cat #01-110); purchased Carna Biosciences 01-110; host or cells: baculovirus expression system
Description: as §1, §2, §3

ROCK2 = target: T3, ROCK2 (Homo sapiens, UniProt O75116); assay: Cell-Based Assay, ROCK2 (HAP1 knockout cells, phospho-MYPT1 Thr853 ELISA); details: read-out: Results from Cell-Based Assay IC50 (μM) ROCK2
T3 construct: endogenous in cells; host or cells: HAP1 knockout cells
Description: (§4) Part II—Procedure for Determining ROCK Inhibition Ability of Test Compounds Using a Cell-Base Assay
(§5) The Cell-Based Assay for determining ROCK inhibition ability of test compounds utilized a genetically modified HAP1 cell line engineered to eliminate expression of either ROCK1 or ROCK2. In the procedure, HAP1 knockout cells are grown in Iscove's Modified Dulbecco's Medium that is additionally supplemented with 10% fetal bovine and 1x antibiotic-antimycotic mixture. Cells are plated in 96 well tissue culture plates at 1×10^5 cells/well (100 μL, of cells at 1×10^6/mL). Test compounds are solubilized in DMSO and diluted into the same media used to grow the cells. A 100 μL, aliquot of each compound dilution in media is added to each well containing the HAP1 cells and incubated at 37° C. for 30 minutes. Following compound incubation, the cells are pelleted by centrifugation at 1800 rpm for 5 minutes at 4° C. Media is removed from the cell pellet and the cells lysed and de-salted. An 80 μL, aliquot of each cell lysate is added to a single well of a 96-well high binding ELISA plate which has been pre-coated with a MYPT1 capture antibody and incubated at 4° C. overnight. The following day the ELISA plate is washed 4× with 0.05% Tween-20 in PBS. After washing, an anti-phospho-MYPT1 (Thr853) antibody is added and allowed to bind for 1 hour at room temperature. The wash step is repeated, and then an anti-rabbit HRP detection antibody is added and allowed to incubate at room temperature for 1 hour. The wash step is then repeated and 100 μL/well 1-Step™ Ultra TMB substrate is added to the ELISA plate and allowed to develop for approximately 5 minutes. The reaction is stopped by addition of H2SO4. Absorbance is read at 450 OD. Data is analyzed using GraphPad Prism software to calculate the 50% inhibitory concentration of test compound (IC50).

ROCK1 = target: T4, ROCK1 (Homo sapiens, UniProt Q13464); assay: Cell-Based Assay, ROCK1 (HAP1 knockout cells, phospho-MYPT1 Thr853 ELISA); details: read-out: Results from Cell-Based Assay IC50 (μM) ROCK1
T4 construct: endogenous in cells; host or cells: HAP1 knockout cells
Description: as §4, §5

[3] = phospho-MYPT1, 30 μM highest concentration tested

T3 sequence (O75116 whole entry): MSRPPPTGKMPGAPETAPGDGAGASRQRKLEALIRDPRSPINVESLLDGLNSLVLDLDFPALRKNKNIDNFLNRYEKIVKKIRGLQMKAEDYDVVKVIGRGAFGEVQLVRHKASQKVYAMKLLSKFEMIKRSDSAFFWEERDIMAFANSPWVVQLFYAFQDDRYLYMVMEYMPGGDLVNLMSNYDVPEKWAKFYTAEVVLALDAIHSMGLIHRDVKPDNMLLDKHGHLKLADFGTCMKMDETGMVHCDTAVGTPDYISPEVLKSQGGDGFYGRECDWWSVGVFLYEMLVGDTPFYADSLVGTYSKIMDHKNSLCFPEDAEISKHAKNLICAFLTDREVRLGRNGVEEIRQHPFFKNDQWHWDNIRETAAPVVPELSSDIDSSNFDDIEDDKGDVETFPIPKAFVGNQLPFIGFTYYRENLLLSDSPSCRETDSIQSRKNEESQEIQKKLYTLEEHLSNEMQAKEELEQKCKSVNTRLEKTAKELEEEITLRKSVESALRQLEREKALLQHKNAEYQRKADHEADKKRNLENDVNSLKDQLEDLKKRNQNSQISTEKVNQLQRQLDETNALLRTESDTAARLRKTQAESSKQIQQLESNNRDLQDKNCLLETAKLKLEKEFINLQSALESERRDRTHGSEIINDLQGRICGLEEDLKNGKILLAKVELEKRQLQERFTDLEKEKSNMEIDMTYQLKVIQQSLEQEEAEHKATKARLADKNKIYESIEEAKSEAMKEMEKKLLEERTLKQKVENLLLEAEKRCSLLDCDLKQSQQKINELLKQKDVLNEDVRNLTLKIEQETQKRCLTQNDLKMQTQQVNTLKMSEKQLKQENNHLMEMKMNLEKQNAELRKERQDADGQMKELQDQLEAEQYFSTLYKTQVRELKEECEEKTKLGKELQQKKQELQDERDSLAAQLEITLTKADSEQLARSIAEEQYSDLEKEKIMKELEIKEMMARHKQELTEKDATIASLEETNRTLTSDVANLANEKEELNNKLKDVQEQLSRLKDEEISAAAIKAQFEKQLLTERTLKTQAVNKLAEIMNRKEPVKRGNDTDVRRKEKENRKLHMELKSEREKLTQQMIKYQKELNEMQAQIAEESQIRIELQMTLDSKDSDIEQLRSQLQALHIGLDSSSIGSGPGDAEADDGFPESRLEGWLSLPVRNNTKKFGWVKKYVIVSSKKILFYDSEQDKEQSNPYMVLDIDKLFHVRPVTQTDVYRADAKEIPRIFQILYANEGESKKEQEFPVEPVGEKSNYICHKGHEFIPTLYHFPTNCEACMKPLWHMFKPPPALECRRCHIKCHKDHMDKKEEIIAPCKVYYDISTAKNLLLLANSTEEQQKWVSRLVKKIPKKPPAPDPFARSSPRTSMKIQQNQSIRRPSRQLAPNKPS
T1 sequence (Q13464 1-477): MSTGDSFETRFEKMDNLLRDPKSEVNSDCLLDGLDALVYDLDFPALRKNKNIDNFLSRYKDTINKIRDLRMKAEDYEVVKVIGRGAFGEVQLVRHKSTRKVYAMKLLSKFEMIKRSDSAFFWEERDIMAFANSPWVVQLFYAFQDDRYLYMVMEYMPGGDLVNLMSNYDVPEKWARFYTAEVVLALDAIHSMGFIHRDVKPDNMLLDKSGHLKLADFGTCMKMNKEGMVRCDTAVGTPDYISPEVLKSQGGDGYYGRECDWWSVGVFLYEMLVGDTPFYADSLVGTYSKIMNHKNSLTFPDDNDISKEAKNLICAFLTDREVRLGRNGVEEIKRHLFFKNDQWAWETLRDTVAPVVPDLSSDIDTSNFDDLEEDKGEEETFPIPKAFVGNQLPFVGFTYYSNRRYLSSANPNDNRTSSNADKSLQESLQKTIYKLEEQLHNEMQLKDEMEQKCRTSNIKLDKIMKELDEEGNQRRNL
T2 sequence (O75116 1-553): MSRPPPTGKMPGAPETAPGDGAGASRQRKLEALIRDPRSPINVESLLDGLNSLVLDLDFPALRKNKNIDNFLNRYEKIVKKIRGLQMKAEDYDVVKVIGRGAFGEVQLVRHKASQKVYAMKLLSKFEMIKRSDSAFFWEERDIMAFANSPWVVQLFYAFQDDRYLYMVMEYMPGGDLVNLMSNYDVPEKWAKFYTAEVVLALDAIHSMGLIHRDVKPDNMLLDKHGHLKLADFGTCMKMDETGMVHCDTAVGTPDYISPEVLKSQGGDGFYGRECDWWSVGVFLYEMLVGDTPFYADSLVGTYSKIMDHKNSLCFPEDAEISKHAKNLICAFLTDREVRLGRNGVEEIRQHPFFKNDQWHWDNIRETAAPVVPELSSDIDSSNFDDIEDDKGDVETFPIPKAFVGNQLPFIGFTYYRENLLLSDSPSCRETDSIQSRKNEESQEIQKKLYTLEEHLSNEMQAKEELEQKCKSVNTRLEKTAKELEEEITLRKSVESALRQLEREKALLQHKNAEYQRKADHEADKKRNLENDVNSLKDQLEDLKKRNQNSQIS
T4 sequence (Q13464 whole entry): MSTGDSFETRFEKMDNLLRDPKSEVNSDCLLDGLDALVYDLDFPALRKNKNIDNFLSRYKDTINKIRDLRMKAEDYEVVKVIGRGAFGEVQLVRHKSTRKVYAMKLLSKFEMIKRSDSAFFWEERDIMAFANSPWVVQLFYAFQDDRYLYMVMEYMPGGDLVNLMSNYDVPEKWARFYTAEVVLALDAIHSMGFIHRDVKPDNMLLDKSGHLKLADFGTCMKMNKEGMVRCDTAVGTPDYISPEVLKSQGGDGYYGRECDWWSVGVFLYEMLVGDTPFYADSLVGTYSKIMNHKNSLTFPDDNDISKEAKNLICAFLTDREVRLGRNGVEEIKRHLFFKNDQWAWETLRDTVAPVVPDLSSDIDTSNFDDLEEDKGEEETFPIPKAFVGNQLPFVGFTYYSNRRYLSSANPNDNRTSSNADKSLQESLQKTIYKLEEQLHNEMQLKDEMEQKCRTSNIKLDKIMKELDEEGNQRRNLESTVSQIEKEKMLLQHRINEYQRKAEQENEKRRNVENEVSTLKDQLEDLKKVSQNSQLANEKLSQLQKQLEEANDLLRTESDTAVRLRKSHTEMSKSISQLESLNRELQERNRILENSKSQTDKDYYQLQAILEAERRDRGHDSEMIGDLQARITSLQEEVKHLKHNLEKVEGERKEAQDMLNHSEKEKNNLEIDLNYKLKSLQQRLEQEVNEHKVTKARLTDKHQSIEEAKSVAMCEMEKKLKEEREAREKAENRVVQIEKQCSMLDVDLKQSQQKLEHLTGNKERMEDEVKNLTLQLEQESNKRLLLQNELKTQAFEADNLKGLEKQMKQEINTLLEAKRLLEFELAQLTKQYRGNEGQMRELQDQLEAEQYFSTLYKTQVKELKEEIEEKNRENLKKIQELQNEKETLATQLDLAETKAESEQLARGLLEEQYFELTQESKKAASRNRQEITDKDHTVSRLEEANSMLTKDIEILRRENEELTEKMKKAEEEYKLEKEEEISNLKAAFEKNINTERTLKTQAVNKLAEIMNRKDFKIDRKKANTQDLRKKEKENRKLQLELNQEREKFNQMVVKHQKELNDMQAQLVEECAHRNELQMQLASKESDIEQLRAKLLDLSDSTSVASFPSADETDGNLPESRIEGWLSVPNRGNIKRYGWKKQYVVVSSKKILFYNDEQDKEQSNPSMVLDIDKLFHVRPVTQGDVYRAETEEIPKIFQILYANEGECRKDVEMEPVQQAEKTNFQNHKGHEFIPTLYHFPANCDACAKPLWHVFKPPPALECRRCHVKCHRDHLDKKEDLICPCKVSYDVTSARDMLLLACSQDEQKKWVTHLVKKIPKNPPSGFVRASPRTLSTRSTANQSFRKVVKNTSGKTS

SMILES | IC50 ([1]; isolated enzyme assay) [µM] | IC50 ([2]; isolated enzyme assay) [µM] | IC50 (ROCK2; class symbols) [µM] | IC50 ([1]; isolated enzyme) [µM] | IC50 ([2]; isolated enzyme) [µM] | IC50 (ROCK2; [3]) [µM] | IC50 (ROCK2; numeric bound) [µM] | also measured
CCCOC(=O)Nc1cc(-c2nsc(Nc3ccc4[nH]ncc4c3Cl)n2)cn(C)c1=O [IV-5] | < 1 | < 1 | < 1 |  |  |  |  | IC50 (ROCK1; class symbols): 1 to 15 µM
Cc1ccncc1C(=O)Nc1cccc(-c2nsc(Nc3ccc4[nH]ncc4c3Cl)n2)c1 [Compound A-4] |  |  |  | > 30 | < 1 | < 1 |  | IC50 (ROCK1; [3]): 1 to 15 µM
O=C(Nc1cccnc1)c1cccc(-c2nsc(Nc3ccc4[nH]ncc4c3Cl)n2)c1 [IV-65] | < 1 | < 1 | < 1 |  |  |  |  | IC50 (ROCK1; numeric bound): > 10 µM
O=C(Nc1cccc(-c2nsc(Nc3ccc4[nH]ncc4c3Cl)n2)c1)c1cnco1 [Compound A-17] |  |  |  | < 1 | < 1 | < 1 |  | 
Cc1coc(-c2cc(CO)cc(-c3nsc(Nc4ccc5[nH]ncc5c4Cl)n3)c2)n1 [IV-68] | < 1 | < 1 | < 1 |  |  |  |  | 
O=C(Nc1cccc(-c2nsc(Nc3ccc4[nH]ncc4c3Cl)n2)c1)c1cocn1 [Compound A-21] |  |  |  | < 1 | < 1 | < 1 |  | 
O=C(Nc1cc(-c2nsc(Nc3ccc4[nH]ncc4c3Cl)n2)ccn1)N1CCOCC1 [Compound A-19] |  |  |  | < 1 | < 1 | < 1 |  | 
Cn1cnc(C(=O)Nc2cccc(-c3nsc(Nc4ccc5[nH]ncc5c4Cl)n3)c2)c1 [Compound A-22] |  |  |  | < 1 | < 1 | < 1 |  | 
Cc1nc(C)c(C(=O)Nc2cccc(-c3nsc(Nc4ccc5[nH]ncc5c4Cl)n3)c2)s1 [Compound A-11] |  |  |  | < 1 | < 1 | < 1 |  | 
Cn1cncc1C(=O)Nc1cccc(-c2nsc(Nc3ccc4[nH]ncc4c3Cl)n2)c1 [Compound A-23] |  |  |  | < 1 | < 1 | < 1 |  | 
Cc1nn(C)cc1C(=O)Nc1cccc(-c2nsc(Nc3ccc4[nH]ncc4c3Cl)n2)c1 [Compound A-15] |  |  |  | < 1 | < 1 | < 1 |  | 
COc1ccc(C(=O)Nc2cc(C)nc(-c3nsc(Nc4ccc5[nH]ncc5c4Cl)n3)c2)cc1 [IV-43] | > 30 | > 30 | 1 to 15 |  |  |  |  | 
CC(=O)Nc1cc(-c2nsc(Nc3ccc4[nH]ncc4c3Cl)n2)cn(C)c1=O [IV-45] | < 1 | < 1 |  |  |  |  | > 10 | 
Cn1ccnc1-c1cccc(-c2nsc(Nc3ccc4[nH]ncc4c3Cl)n2)c1 [IV-88] | < 1 | < 1 | 1 to 15 |  |  |  |  | 
Cc1cc(C(=O)Nc2cccc(-c3nsc(Nc4ccc5[nH]ncc5c4Cl)n3)c2)on1 [Compound A-18] |  |  |  | < 1 | < 1 | < 1 |  | 
Cc1cc(C(=O)Nc2cccc(-c3nsc(Nc4ccc5[nH]ncc5c4Cl)n3)c2)n(C)n1 [Compound A-12] |  |  |  | < 1 | < 1 | < 1 |  | 
Cn1nccc1C(=O)Nc1cccc(-c2nsc(Nc3ccc4[nH]ncc4c3C#N)n2)c1 [IV-33] | < 1 | < 1 |  |  |  |  | > 10 | 
COc1cccc(C(=O)Nc2cc(-c3nsc(Nc4ccc5[nH]ncc5c4Cl)n3)ccn2)c1 [IV-64] | > 30 | > 30 | < 1 |  |  |  |  | 
Cc1coc(-c2cccc(-c3nsc(Nc4ccc5[nH]ncc5c4Cl)n3)c2)n1 [Compound A-10] |  |  |  | < 1 | < 1 | < 1 |  | 

SMILES | IC50 ([1]; isolated enzyme assay) [µM] | IC50 ([2]; isolated enzyme assay) [µM] | IC50 (ROCK2; class symbols) [µM] | IC50 ([1]; isolated enzyme) [µM] | IC50 ([2]; isolated enzyme) [µM] | IC50 (ROCK2; [3]) [µM] | IC50 (ROCK2; numeric bound) [µM] | also measured
Cn1cnc(C(=O)Nc2cc(-c3nsc(Nc4ccc5[nH]ncc5c4Cl)n3)ccn2)c1 [IV-29] | > 30 | < 1 |  |  |  |  | > 10 | 
O=C(Nc1cccc(-c2nsc(Nc3ccc4[nH]ncc4c3Cl)n2)c1)c1nc(O)co1 [IV-79] | < 1 | < 1 |  |  |  |  | > 10 | 
Cn1nccc1C(=O)Nc1cc(-c2nsc(Nc3ccc4[nH]ncc4c3Cl)n2)ccn1 [Compound A-9] |  |  |  | > 30 | < 1 | < 1 |  | 
Cn1cc(-c2nsc(Nc3ccc4[nH]ncc4c3Cl)n2)cc(NC(=O)c2ccccc2)c1=O [IV-39] | 1 to 15 | < 1 | < 1 |  |  |  |  | 
Cc1cc(NC(=O)c2cnco2)cc(-c2nsc(Nc3ccc4[nH]ncc4c3Cl)n2)n1 [IV-25] | < 1 | < 1 |  |  |  |  | > 10 | 
Cc1cnc(-c2cncc(-c3nsc(Nc4ccc5[nH]ncc5c4Cl)n3)c2)o1 [IV-103] | > 30 | > 30 |  |  |  |  | > 10 | 
Cc1cc(-c2nc(C)co2)cc(-c2nsc(Nc3ccc4[nH]ncc4c3Cl)n2)n1 [IV-105] | > 30 | > 30 |  |  |  |  | > 10 | 
Cc1cc(NC(=O)c2cncs2)cc(-c2nsc(Nc3ccc4[nH]ncc4c3Cl)n2)n1 [IV-20] | < 1 | < 1 |  |  |  |  | > 10 | 
Cc1coc(-c2cncc(-c3nsc(Nc4ccc5[nH]ncc5c4Cl)n3)c2)n1 [IV-97] | > 30 | > 30 |  |  |  |  | > 10 | 
Cc1cn2cccc(-c3nsc(Nc4ccc5[nH]ncc5c4Cl)n3)c2n1 [IV-89] | < 1 | < 1 |  |  |  |  | > 10 | 
O=C(NC1CCC1)c1cc(-c2nsc(Nc3ccc4[nH]ncc4c3Cl)n2)ccc1F [IV-30] | < 1 | < 1 | < 1 |  |  |  |  | 
COc1ncc(C(=O)Nc2cc(-c3nsc(Nc4ccc5[nH]ncc5c4Cl)n3)ccn2)cn1 [IV-27] | > 30 | < 1 |  |  |  |  | > 10 | 
COc1ncc(-c2nsc(Nc3ccc4[nH]ncc4c3Cl)n2)cc1NC(=O)c1ccnn1C [IV-106] | > 30 | > 30 |  |  |  |  | > 10 | 
O=C(Nc1cncc(-c2nsc(Nc3ccc4[nH]ncc4c3Cl)n2)c1)c1cnco1 [IV-24] | > 30 | < 1 |  |  |  |  | > 10 | 
Cn1nc(C(=O)Nc2cccc(-c3nsc(Nc4ccc5[nH]ncc5c4Cl)n3)c2)cc1C(F)(F)F [Compound A-13] |  |  |  | < 1 | < 1 | < 1 |  | 
CC1(C)CN(c2cccc(-c3nsc(Nc4ccc5[nH]ncc5c4C#N)n3)c2)C(=O)O1 [IV-34] | < 1 | < 1 | 1 to 15 |  |  |  |  | 
COc1cccc(C(=O)Nc2cc(C)nc(-c3nsc(Nc4ccc5[nH]ncc5c4Cl)n3)c2)c1 [IV-44] | > 30 | > 30 | 1 to 15 |  |  |  |  | 
COc1ccc(C(=O)Nc2cc(-c3nsc(Nc4ccc5[nH]ncc5c4Cl)n3)ccn2)cc1 [IV-108] | > 30 | < 1 | 1 to 15 |  |  |  |  | 
O=C(NC(CO)CO)c1cc(-c2nsc(Nc3ccc4[nH]ncc4c3Cl)n2)ccc1F [IV-21] | < 1 | < 1 | 1 to 15 |  |  |  |  | 
